These results are taken from the supplement of paper PMC11061612.

Holding throughout (assay): combination Emax (second highest fraction inhibited in the dose matrix, 72 h); higher = more inhibition; extreme values may be limits of the assay
Assay [1] has as its system A3-KAW (B-Cell Non-Hodgkin's Lymphoma). The gist of the method:
(§1)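 Cell lines grown in DMEM/F12 or RPMI with 10% FBS were plated in 1536-well plates and held 24 hours at 37°C, 5% CO2 before 72 hours of exposure to two-drug dose matrices, with DMSO typically at 0.2%. CellTiter-Glo 2.0 luminescence gave viability, which was converted to inhibition. Vehicle wells were set to 0 and blank wells to 1. Combination Emax is the second-highest inhibition in the matrix, and Bliss excess is the observed combination effect minus the expected EA + EB − EA·EB, where EA and EB are the single-agent effects.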

Assay [2] deals with CAS-1 (Glioblastoma). The gist of the method:
as §1

Assay [3] concerns JSC-1 (B-Cell Non-Hodgkin's Lymphoma). The gist of the method: as §1
Assay [4] has as its system CAL-29 (Bladder Carcinoma). Summed up: as §1
The subject of assay [5] is 8-MG-BA (Glioblastoma). The gist of the method:
as §1

In assay [6] the test system is NCI-H1666 (Lung Adenocarcinoma). The gist of the method: as §1
The test system of assay [7] is NCI-H2066 (Squamous Cell Lung Carcinoma). Summed up:
as §1

The subject of assay [8] is KARPAS-422 (B-Cell Non-Hodgkin's Lymphoma). Summed up:
as §1

In assay [9] the test system is NCI-H1650 (Lung Adenocarcinoma). Summed up:
as §1

In assay [10] the test system is SISO (Cervical Carcinoma). Summed up:
as §1

In assay [11] the test system is COLO-320-HSR (Colorectal Carcinoma). The gist of the method:
as §1

Assay [12] deals with NCI-H1581 (Non-Small Cell Lung Carcinoma). The gist of the method: as §1
The test system of assay [13] is BICR22 (Oral Cavity Carcinoma). The gist of the method: as §1
In assay [14] the test system is ONS-76 (Other Solid Carcinomas). The gist of the method:
as §1

The subject of assay [15] is HCC1954 (Breast Carcinoma). The gist of the method: as §1
Assay [16] concerns PA-1 (Ovarian Carcinoma). The gist of the method:
as §1

The test system of assay [17] is A498 (Kidney Carcinoma). Summed up: as §1
Assay [18] deals with TT (Thyroid Gland Carcinoma). Summed up: as §1
The test system of assay [19] is IGR-37 (Melanoma). The gist of the method: as §1
Assay [20] concerns COR-L311 (Small Cell Lung Carcinoma). Summed up: as §1

As for `Cn1cnc2c(F)c(Nc3ccc(Br)cc3Cl)c(C(=O)NOCCO)cc21` [Selumetinib] + C[C@@H]1COCCN1C2=NC(=NC(=C2)C3(CC3)[S@](=N)(=O)C)C4=C5C=CNC5=NC=C4 [AZD6738] (first compound max 10 µM, 7x7, partner max 10 µM), the “combination Emax” value worked out at 1 in assay [1]; 0.545 in assay [2]; 0.957 in assay [3]; 0.696 in assay [4]; 0.792 in [5]; 0.516 in [6]. The “combination Emax” value worked out at 0.43 in assay [7]; 0.519 in [8]; 0.333 in [9]; 0.43 in assay [10]; 0.371 in assay [11]; 0.545 in [12]. For the same compound, the “combination Emax” value amounted to 0.722 in assay [13]; 0.771 in assay [14]; 0.432 in assay [15]; 0.855 in assay [16]; 0.57 in [17]; 0.316 in assay [18]. Also, the “combination Emax” value in assay [19] was determined as 0.864; in [20] it was 0.32.
Turning to `CC(=O)Nc1cccc(-n2c(=O)n(C3CC3)c(=O)c3c(Nc4ccc(I)cc4F)n(C)c(=O)c(C)c32)c1` [Trametinib] + Cc1nc(-c2cn3c(n2)-c2ccc(-c4cnn(C(C)(C)C(N)=O)c4)cc2OCC3)n(C(C)C)n1 [Taselisib] (first compound max 1 µM, 7x7, partner max 10 µM), the “combination Emax” value in [1] came out at 0.726; in assay [2], 0.957; in [3], 0.631; in assay [4], 0.956; in assay [5] it was 0.863; in [6] it was 0.988. For the same compound, the “combination Emax” value in assay [7] turned out to be 0.728; in [8], 0.63; in assay [9] it was 0.695; in assay [10], 0.447; in [11], 0.338; in assay [12], 0.586. The “combination Emax” value in [13] came out at 1; in assay [14], 0.975; in [15] it was 0.949; in assay [16] it was 1; in assay [17], 0.861; in assay [18] it was 0.666. Moreover, the results for the “combination Emax” value in assay [19] and in assay [20] were 1 and 0.751, respectively.
Regarding `CC1(C)CCC(CN2CCN(c3ccc(C(=O)NS(=O)(=O)c4ccc(NCC5CCOCC5)c([N+](=O)[O-])c4)c(Oc4cnc5[nH]ccc5c4)c3)CC2)=C(c2ccc(Cl)cc2)C1` [Venetoclax] + C1CN(CCC1(C(=O)N[C@@H](CCO)C2=CC=C(C=C2)Cl)N)C3=NC=NC4=C3C=CN4 [Capivasertib] (first compound max 1 µM, 7x7, partner max 3 µM), the “combination Emax” value in [1] stood at 0.282; in assay [2] it was 0.407; in assay [3] it was 0.161; in assay [4], 0.277; in assay [5], 0.26; in assay [6], 0.287. The “combination Emax” value turned out to be 0.424 in [7]; 0.917 in assay [8]; 0.164 in assay [9]; 0.106 in [10]; 0.0935 in assay [11]; 0.0621 in assay [12]. Besides, the “combination Emax” value in assay [13] came to 0.272; in assay [14], 0.761; in [15], 0.558; in [16] it was 0.636; in [17], 0.537; in assay [18] it was 0.681. Also, the “combination Emax” value in assay [19] was found to be 0.556; in assay [20], 0.842.
For `CC1(C)CCC(CN2CCN(c3ccc(C(=O)NS(=O)(=O)c4ccc(NCC5CCOCC5)c([N+](=O)[O-])c4)c(Oc4cnc5[nH]ccc5c4)c3)CC2)=C(c2ccc(Cl)cc2)C1` [Venetoclax] + C=CCn1c(=O)c2cnc(Nc3ccc(N4CCN(C)CC4)cc3)nc2n1-c1cccc(C(C)(C)O)n1 [AZD1775] (first compound max 1 µM, partner max 1 µM), the “combination Emax” value in assay [1] was 0.937; in [2], 0.615; in [3], 0.888; in assay [4] it was 0.483; in assay [5], 0.755; in assay [6], 0.343. The “combination Emax” value came to 0.203 in assay [7]; 0.995 in [8]; 0.433 in assay [9]; 0.694 in [10]; 0.801 in assay [11]; 0.32 in assay [12]. Besides, the “combination Emax” value in assay [13] was found to be 0.782; in assay [14], 0.781; in assay [15], 0.364; in [16] it was 0.847; in [17], 0.452; in assay [18] it was 0.673. The entries for the “combination Emax” value in assay [19] and in assay [20] were 0.852 and 0.808, respectively.
For the compound `CC1(C)CCC(CN2CCN(c3ccc(C(=O)NS(=O)(=O)c4ccc(NCC5CCOCC5)c([N+](=O)[O-])c4)c(Oc4cnc5[nH]ccc5c4)c3)CC2)=C(c2ccc(Cl)cc2)C1` [Venetoclax] + CCN(CCO)CCCOc1ccc2c(Nc3cc(CC(=O)Nc4cccc(F)c4)[nH]n3)ncnc2c1 [AZD2811] (first compound max 1 µM, 7x7, partner max 1 µM), the “combination Emax” value in [1] worked out at 0.286; in [2], 0.271; in assay [3] it was 0.332; in [4], 0.264; in assay [5] it was 0.245; in assay [6], 0.265. Moreover, the “combination Emax” value worked out at 0.226 in assay [7]; 0.922 in assay [8]; 0.207 in [9]; 0.231 in assay [10]; 0.156 in [11]; 0.266 in [12]. In addition, the “combination Emax” value in assay [13] worked out at 0.492; in [14], 0.698; in assay [15] it was 0.293; in [16], 0.527; in assay [17], 0.216; in [18] it was 0.652. For the same compound, the results for the “combination Emax” value in assay [19] and in assay [20] were 0.537 and 0.927, respectively.
